“And” between values parts separate entries of the source, which are not always exact repeats. Equal entries are not always repeated. Where two headings read alike, the source gives them in different places.
Legend:
[1] = target: T1, UmChlE (Mycosarcoma maydis, UniProt A0A060S684, P492L); assay: biochemical; type: biochemical, Ustilago maydis; details: for Relative esterase activity: 1 h, 37 °C, 50 mM Tris pH 7.5
T1 construct: purification of the chlorogenic acid esterase UmChlE from culture supernatant of U. maydis was accomplished by three complementary separation steps; made in house; host or cells: Ustilago maydis itself (native producer), culture supernatant; Q Sepharose FF, preparative IEF, polyamide column
Method: (§1) Chlorogenic acid esterase activity was determined at 37 °C in 50 mM Tris buffer at pH 7.5 using chlorogenic acid and methyl ferulate as standard substrates, unless otherwise stated. The release of the corresponding free acids was analyzed with HPLC-UV. If appropriate, the hydrolysis of other benzoic and cinnamic acid ester derivatives as well as feruloylated saccharides was measured with the same method. After incubation for one hour the reaction was terminated by doubling the reacting volume with acetonitrile. Samples were centrifuged (15 min, 15.000 × g) before injection to the HPLC (Chromolith Performance RP-18e reverse-phase column, 100 × 4.6 mm, Merck, Darmstadt, Germany). […] Substance elution was detected at 232 nm (benzoic and 3-hydroxybenzoic acid), 254 nm (4-hydroxybenzoic and vanillic acid), 275 nm (cinnamic and gallic acid), 306 nm (p-coumaric acid) and 323 nm (ferulic, caffeic, chlorogenic and sinapic acid) using a Shimadzu UV-Vis detector (SPD-10A VP, Shimadzu Deutschland GmbH, Duisburg, Germany). One unit of enzyme activity was defined as the amount of enzyme releasing one µmοl of free acid per minute under the specified conditions. All measurements were performed at least twice.
Enzyme tolerance to different solvents was investigated in the presence of 50 % (v/v) acetone, acetonitrile, diethyl ether, DMF, DMSO, ethanol, isoamyl alcohol, isobutyl alcohol, isopropanol, methanol, n-hexane, n-heptane, tert-butyl methyl ether or toluene, respectively, in 50 mM Tris buffer pH 7.5 containing 0.7 mM substrate. In an additional experiment, 0.84 mM substrate was used. After incubation (60 min, 37 °C, 900 rpm) the mixture was applied for HPLC analysis as described above. […] The effect of high salt concentrations (0.1 - 3 M NaCl) on enzyme activity was investigated, too.
Various metal ions and enzyme inhibitors were examined for their effect on chlorogenic acid esterase activity (Table 2). […] Hg^2+ reacts with thiol groups and can also reduce disulphide bonds (40). […] Table 2 Effect of metal ions, inhibitors and NaCl on UmChIE activity.
Remaining enzyme activity was measured after 1 h incubation with 1mM, or, in a further experiment, 1.95 mM methyl ferulate and different metal ions as well as inhibitors in concentrations listed above (at 37 °C, 50 mM Tris buffer pH 7.5). Numbers in parentheses are the estimates of the standard error. A sample without additive was used for the calculation of relative enzyme activities. ND: activity not detectable.

[2] = target: T1, UmChlE; type: biochemical, Ustilago maydis; details: 1 mM (or 1.95 mM) substrate, 1 h, 37 °C, 50 mM Tris pH 7.5, ND = activity not detectable; for Relative esterase activity: chlorogenic acid = 100 %, standard error in parentheses
Method: as §1
Substrate specificity of the UmChlE was determined towards different cinnamate and benzoate esters as well as natural substrates, such as F-A, F-AX and F-AXG, with activity assays as described above. Three mM stock solutions of all substrates were prepared in water.
Purified UmChlE was incubated with 1 mM, or, in a further experiment, 1.95 mM of different substrates for 1 h (at 37 °C, 50 mM Tris buffer pH 7.5). Relative enzyme activities were calculated based on the most preferred substance of the UmChIE: chlorogenic acid which was set to 100 %. Numbers in parentheses are the estimates of the standard error.

[3] = target: T2, RsChlE (Rhizoctonia solani, UniProt A0A1D0BQV8); assay: Substrate specificity of purified RsChlE; type: biochemical; details: 1 mM (or 1.95 mM) substrate, 1 h, 30 °C, 50 mM Bis-Tris pH 6.0
T2 sequence (A0A1D0BQV8 39-563): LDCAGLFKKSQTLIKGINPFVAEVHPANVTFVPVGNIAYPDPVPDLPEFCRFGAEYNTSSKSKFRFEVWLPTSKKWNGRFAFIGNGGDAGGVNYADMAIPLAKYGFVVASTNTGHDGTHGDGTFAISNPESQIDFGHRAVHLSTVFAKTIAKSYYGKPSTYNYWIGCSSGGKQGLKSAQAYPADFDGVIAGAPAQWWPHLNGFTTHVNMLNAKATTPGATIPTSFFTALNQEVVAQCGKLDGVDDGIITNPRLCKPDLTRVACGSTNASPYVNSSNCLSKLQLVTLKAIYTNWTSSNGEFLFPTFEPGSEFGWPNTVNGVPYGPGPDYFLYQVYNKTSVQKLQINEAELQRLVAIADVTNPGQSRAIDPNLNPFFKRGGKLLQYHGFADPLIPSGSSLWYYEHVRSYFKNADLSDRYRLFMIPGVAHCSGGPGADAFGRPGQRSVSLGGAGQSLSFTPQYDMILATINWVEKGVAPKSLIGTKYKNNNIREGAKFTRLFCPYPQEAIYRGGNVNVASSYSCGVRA
Method: as §1
After purification of the recombinant RsChlE from the culture supernatant of Pichia pastoris with Ni-NTA, the enzyme was biochemically characterized. The experiments were performed like for UmChlE. pH and temperature optimums were analyzed. […] Table 4: Substrate specificity of purified RsChIE.
Purified RsChlE was incubated with 1 mM, or in an alternative experiment, 1.95 mM of different substrates for 1 h (at 30 °C, 50 mM Bis-Tris buffer pH 6.0). […] Numbers in parentheses are the estimates of the standard error.

[4] = 5 mM additive, 1 mM (or 1.95 mM) methyl ferulate, without additive = 100 %, standard error in parentheses, ND = activity not detectable

T1 sequence (A0A060S684 22-585, stated change not applied): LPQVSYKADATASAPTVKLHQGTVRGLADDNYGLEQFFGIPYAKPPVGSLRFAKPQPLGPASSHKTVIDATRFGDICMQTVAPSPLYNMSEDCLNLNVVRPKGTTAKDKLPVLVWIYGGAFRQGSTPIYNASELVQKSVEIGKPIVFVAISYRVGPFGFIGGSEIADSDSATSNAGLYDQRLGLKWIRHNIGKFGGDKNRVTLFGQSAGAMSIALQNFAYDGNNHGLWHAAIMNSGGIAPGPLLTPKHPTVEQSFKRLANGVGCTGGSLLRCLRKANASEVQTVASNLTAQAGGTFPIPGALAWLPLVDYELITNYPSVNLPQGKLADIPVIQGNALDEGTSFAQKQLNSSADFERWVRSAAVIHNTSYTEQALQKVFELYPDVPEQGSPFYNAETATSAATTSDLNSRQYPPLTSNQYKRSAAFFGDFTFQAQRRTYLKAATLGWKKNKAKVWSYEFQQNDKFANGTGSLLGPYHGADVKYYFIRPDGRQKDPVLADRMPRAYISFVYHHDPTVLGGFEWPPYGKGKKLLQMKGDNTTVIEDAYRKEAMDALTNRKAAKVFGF

## O=S(=O)([O-])[O-].O=S(=O)([O-])[O-].O=S(=O)([O-])[O-].[Al+3].[Al+3] [Al2(SO4)3]
[1]; [4]
  Relative esterase activity: 53 (0.12) %
[1]; 5 mM additive, 1 mM (or 1.95 mM) methyl ferulate, without additive = 100 %, standard error in parentheses, ND = activity not detectable, listed as Al^3+
  Relative esterase activity: 50 - 76%

## [Ca+2].[Cl-].[Cl-] [CaCl2]
[1]; [4]
  Relative esterase activity: 103 (2.76) %

## [Cl-].[Cl-].[Co+2] [CoCl2]
[1]; [4]
  Relative esterase activity: 67 (0.11) %
[1]; 5 mM additive, 1 mM (or 1.95 mM) methyl ferulate, without additive = 100 %, standard error in parentheses, ND = activity not detectable, listed as Co^2+
  Relative esterase activity: 50 - 76%

## O=[N+]([O-])[O-].O=[N+]([O-])[O-].O=[N+]([O-])[O-].[Cr+3] [Cr(NO3)3]
[1]; [4]
  Relative esterase activity: 69 (3.54) %
[1]; 5 mM additive, 1 mM (or 1.95 mM) methyl ferulate, without additive = 100 %, standard error in parentheses, ND = activity not detectable, listed as Cr^3+
  Relative esterase activity: 50 - 76%

## [Cl-].[Cs+] [CsCl]
[1]; [4]
  Relative esterase activity: 105 (1.21) %

## O=[N+]([O-])[O-].O=[N+]([O-])[O-].[Cu+2] [Cu(NO3)2]
[1]; [4]
  Relative esterase activity: 96 (0.53) %

## COc1cc(/C=C/C(=O)OC[C@@H]2OC(O)[C@H](O)[C@H]2O)ccc1O (stereo partly drawn) [F-A, 5-O-trans-feruloyl-L-arabinofuranose]
[2]
  Specific esterase activity: 2.0 U mg^-1 and 2.06 U mg^-1
[3]
  Specific activity: 4.48 U/mg

## COc1cc(/C=C/C(=O)OC[C@@H]2OC(O)[C@H](O[C@@H]3OC[C@@H](O)[C@H](O)[C@H]3O[C@@H]3O[C@@H](CO)[C@@H](O)[C@@H](O)[C@@H]3O)[C@H]2O)ccc1O (stereo partly drawn) [F-AXG, α-L-galactopyranosyl-(1→2)-β-D-xylopyranosyl-(1→2)-5-O-trans-feruloyl-L-arabinofuranose]
[2]
  Specific esterase activity: 0.9 U mg^-1 and 0.92 U mg^-1
[3]
  Specific activity: 3.66 U/mg

## [Cl][Fe]([Cl])[Cl] [FeCl3]
[1]; [4]
  Relative esterase activity: 66 (0.65) %

## O=S(=O)([O-])[O-].[Fe+2] [FeSO4]
[1]; [4]
  Relative esterase activity: 102 (0.50) %

## CC(=O)[O-].CC(=O)[O-].[Hg+2] [HgAc2]
[1]; [4]
  Relative esterase activity: complete loss of enzyme activity

## [Cl-].[K+] [KCI]
[1]; [4]
  Relative esterase activity: 108 (0.57) %

## [Cl-].[Li+] [LiCI]
[1]; [4]
  Relative esterase activity: 106 (1.39) %

## [Cl-].[Cl-].[Mg+2] [MgCl2]
[1]; [4]
  Relative esterase activity: 106 (0. 53) %

## O=S(=O)([O-])[O-].[Mn+2] [MnSO4]
[1]; [4]
  Relative esterase activity: 90 (0.09) %
[1]; 5 mM additive, 1 mM (or 1.95 mM) methyl ferulate, without additive = 100 %, standard error in parentheses, ND = activity not detectable, listed as Mn^2+
  Relative esterase activity: 90%

## [Cl-].[Na+] [NaCl]
[1]; 100 mM additive, methyl ferulate
  Relative esterase activity: 105 (0.02) %
[1]; 500 mM additive, methyl ferulate
  Relative esterase activity: 121 (0.01) %
[1]; 1000 mM additive, methyl ferulate
  Relative esterase activity: 125 (0.02) %
[1]; 2000 mM additive, methyl ferulate
  Relative esterase activity: 142 (0.06) %
[1]; 3000 mM (3 M) additive, methyl ferulate
  Relative esterase activity: 150% and 150 (0.04) %

## O=S(=O)([O-])[O-].[Ni+2] [NiSO4]
[1]; [4]
  Relative esterase activity: 108 (0.87) %

## CCCCCCCCCCCCOS(=O)(=O)O [SDS]
[1]; read-out: enzyme activity was inhibited
  inhibition at 5000 µM: 41%

## O=[N+]([O-])[O-].O=[N+]([O-])[O-].[Sr+2] [SrNO3]
[1]; [4]
  Relative esterase activity: 104 (0,18) %

## O=S(=O)([O-])[O-].[Zn+2] [ZnSO4]
[1]; [4]
  Relative esterase activity: 76 (1.26) %
[1]; 5 mM additive, 1 mM (or 1.95 mM) methyl ferulate, without additive = 100 %, standard error in parentheses, ND = activity not detectable, listed as Zn^2+
  Relative esterase activity: 50 - 76%

## CCOC(=O)C=Cc1ccccc1 [ethyl cinnamate]
[3]
  Specific activity: 0.91 U/mg

## CCOC(=O)/C=C/c1ccc(O)c(OC)c1 [ethyl ferulate]
[2]
  Specific esterase activity: 0.78 U mg^-1
[3]
  Specific activity: 3.60 U/mg

## COC(=O)/C=C/c1ccc(O)c(O)c1 [methyl caffeate]
[2]
  Specific esterase activity: 0.49 U mg^-1
[3]
  Specific activity: 4.61 U/mg

## COC(=O)C=Cc1ccccc1 [methyl cinnamate]
[3]
  Specific activity: 2.10 U/mg

## COC(=O)/C=C/c1cc(OC)c(O)c(OC)c1 [methyl sinapate]
[2]
  Relative esterase activity: no
[2]; listed as MSA
  Relative esterase activity: total loss of activity

From patent EP3539977B1, “ENZYMES WITH CHLOROGENIC ACID ESTERASE ACTIVITY AND FERULOYL ESTERASE ACTIVITY” (SternEnzym GmbH & Co. KG, priority 2014, dated 2016)
